From patent publication US6632828B2, “Substituted imidazole neuropeptide Y Y5 receptor antagonists” (Schering Corporation, priority 1999, dated 2003) come the findings set out here.

For the test, the target named is T1, Human NPY Y5 receptors (Homo sapiens, UniProt Q15761).
T1 construct: expressed in transfected cells; host or cells: CHO cells (membrane protein)
T1 sequence (Q15761 1-445): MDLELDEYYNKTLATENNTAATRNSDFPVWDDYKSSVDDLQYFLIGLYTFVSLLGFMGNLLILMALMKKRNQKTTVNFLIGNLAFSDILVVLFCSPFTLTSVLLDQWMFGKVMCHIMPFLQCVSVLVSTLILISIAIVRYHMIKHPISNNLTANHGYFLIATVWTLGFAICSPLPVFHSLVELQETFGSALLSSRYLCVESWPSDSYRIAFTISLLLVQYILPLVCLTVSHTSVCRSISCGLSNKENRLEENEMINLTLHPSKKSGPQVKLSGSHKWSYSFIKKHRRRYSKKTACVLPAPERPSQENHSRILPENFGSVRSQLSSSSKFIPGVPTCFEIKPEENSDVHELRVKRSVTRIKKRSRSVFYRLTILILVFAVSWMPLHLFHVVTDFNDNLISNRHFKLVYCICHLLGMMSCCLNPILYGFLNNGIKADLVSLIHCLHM
Description: NPY Receptor Binding Assay. The conditions noted are these: Human NPY Y5 receptors expressed in CHO cells; 0.1 nM 125I-peptide YY; read-out: r/h Y5 Ki. As for the experimental part: NPY Receptor Binding Assay
Human NPY Y5 receptors were expressed in CHO cells. Binding assays were performed in 50 mM HEPES, pH 7.2, 2.5 mM CaCl2, 1 mM MgCl2 and 0.1% BSA containing 5-10 μg of membrane protein and 0.1 nM ^125I-peptide YY in a total volume of 200 μl. Non-specific binding was determined in the presence of 1 uM NPY. The reaction mixtures were incubated for 90 minutes at room temperature, then filtered through Millipore MAFC glass fiber filter plates which had been pre-soaked in 0.5% polyethyleneimine. The filters were washed with phosphate-buffered saline, and radioactivity was measured in a Packard TopCount scintillation counter.
Regarding `CN(c1cccc(-c2nc(-c3cccc(C(F)(F)F)c3)c[nH]2)c1)S(C)(=O)=O` [Example 6A], the Ki amounted to 2.1 nM.

Take `FC(F)(F)c1cccc(-c2c[nH]c(N3CCN(c4ccccn4)CC3)n2)c1` [Example 26]: the Ki is 1.4 nM.

In the case of `FC(F)(F)c1cccc(-c2c[nH]c(C34CC5CC(CC(C5)C3)C4)n2)c1` [Example 1A], the Ki came out at 3 nM.

Regarding `CS(=O)(=O)N1CCC(c2nc(-c3cc(Cl)cc(Cl)c3)c[nH]2)CC1` [Example 21C], the Ki is 2 nM.

In the case of `CS(=O)(=O)Nc1cccc(-c2nc(-c3cccc(C(F)(F)F)c3)c[nH]2)c1` [Example 5A], the Ki was determined as 1.4 nM.

Regarding `O=C(Nc1ccccc1)c1cccc(-c2nc(-c3cccc(C(F)(F)F)c3)c[nH]2)c1` [Example 2A], the Ki was 315 nM.

With `FC(F)(F)c1cccc(-c2c[nH]c(-c3cccc(CN4CCCCC4)c3)n2)c1` [Example 3], the Ki amounted to 17 nM.

As for `COC(=O)c1cccc(-c2nc(-c3cccc(C(F)(F)F)c3)c[nH]2)c1` [Example 1B], the Ki is 52 nM.

In the case of `FC(F)(F)c1cccc(-c2c[nH]c(C3=CCN(c4ccccn4)CC3)n2)c1` [Example 19], the Ki is 1.7 nM.

On to `O=C(Nc1cccc(-c2nc(-c3cccc(C(F)(F)F)c3)c[nH]2)c1)c1ccccc1` [Example 10A], for which the Ki is 63 nM.
